Results published in ChEMBL document CHEMBL1201862, “PubChem BioAssay data set” (2004).
Activity calls are given as the source filed them.

Assays:
[1] = target: T1, Leucine aminopeptidase (Plasmodium falciparum 3D7, UniProt Q8IL11); experiment: P. falciparum M17LAP inhibitors, primary screen, biochemical, fluorogenic H-Leu-NHMec substrate, 1536-well (AID 1619); type: functional
T1 sequence (Q8IL11 whole entry): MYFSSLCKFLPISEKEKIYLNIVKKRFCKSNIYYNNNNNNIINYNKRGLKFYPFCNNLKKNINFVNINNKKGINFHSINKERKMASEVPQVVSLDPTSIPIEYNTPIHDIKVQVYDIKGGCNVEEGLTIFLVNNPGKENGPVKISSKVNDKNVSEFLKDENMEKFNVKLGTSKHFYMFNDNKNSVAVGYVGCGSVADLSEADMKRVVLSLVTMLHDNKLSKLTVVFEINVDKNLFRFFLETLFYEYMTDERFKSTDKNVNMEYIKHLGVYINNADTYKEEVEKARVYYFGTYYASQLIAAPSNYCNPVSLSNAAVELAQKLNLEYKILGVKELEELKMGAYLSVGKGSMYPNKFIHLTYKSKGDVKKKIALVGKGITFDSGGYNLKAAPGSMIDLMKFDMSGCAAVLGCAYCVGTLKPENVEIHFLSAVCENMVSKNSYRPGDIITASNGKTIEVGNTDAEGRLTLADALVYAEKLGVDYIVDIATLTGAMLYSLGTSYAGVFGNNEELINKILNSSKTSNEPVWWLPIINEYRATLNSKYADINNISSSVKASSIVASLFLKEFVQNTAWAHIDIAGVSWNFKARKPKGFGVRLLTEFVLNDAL

[2] = target: T2, Histone-lysine N-methyltransferase NSD2 (Homo sapiens, UniProt O96028); type: biochemical
T2 sequence (O96028 whole entry): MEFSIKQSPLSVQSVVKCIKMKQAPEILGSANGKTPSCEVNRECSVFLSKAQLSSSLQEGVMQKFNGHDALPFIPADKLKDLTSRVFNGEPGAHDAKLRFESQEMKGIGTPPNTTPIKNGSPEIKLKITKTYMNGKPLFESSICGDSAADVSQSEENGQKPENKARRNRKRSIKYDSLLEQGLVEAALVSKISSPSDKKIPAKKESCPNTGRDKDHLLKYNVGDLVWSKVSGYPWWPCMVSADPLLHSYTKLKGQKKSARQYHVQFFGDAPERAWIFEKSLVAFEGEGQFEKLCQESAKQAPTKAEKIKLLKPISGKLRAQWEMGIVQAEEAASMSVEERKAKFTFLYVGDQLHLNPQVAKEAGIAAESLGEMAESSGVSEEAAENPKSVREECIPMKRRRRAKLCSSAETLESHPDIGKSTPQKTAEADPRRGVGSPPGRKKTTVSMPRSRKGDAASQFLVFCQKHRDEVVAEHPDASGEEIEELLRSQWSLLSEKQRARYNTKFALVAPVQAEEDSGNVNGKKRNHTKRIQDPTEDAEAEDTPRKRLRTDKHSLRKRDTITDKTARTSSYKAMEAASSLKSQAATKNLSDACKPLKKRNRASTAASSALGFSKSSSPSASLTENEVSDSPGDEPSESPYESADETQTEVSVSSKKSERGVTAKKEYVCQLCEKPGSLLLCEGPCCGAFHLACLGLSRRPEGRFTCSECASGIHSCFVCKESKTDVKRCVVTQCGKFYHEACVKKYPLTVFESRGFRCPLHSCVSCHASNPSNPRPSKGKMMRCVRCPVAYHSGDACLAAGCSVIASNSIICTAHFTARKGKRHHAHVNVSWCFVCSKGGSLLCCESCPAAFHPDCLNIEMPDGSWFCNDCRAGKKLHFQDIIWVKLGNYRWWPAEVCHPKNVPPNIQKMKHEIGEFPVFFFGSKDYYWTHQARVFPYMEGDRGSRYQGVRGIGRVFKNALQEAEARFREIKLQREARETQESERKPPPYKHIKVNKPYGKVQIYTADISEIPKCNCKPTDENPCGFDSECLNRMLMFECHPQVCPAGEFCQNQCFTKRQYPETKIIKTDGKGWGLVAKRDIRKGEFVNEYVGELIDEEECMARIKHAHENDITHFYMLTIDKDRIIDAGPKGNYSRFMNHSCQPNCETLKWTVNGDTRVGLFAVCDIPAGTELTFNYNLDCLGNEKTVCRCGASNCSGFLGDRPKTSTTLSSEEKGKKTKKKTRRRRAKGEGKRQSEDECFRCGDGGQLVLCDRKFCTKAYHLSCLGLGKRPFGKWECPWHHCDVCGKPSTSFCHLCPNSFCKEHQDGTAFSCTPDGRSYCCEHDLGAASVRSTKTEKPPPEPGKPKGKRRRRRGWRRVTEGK

[3] = target: Prothrombin (Homo sapiens, UniProt P00734); experiment: Thrombin 1536 HTS Dose Response Confirmation. [Related pubchem assays: 1046 (Thrombin 1536 HTS; hits were confirmed in this assay)]; type: functional
[4] = target: T3, Heat shock factor protein 1 (Mus musculus, UniProt P38532); experiment: inhibition of MG132-induced HSE-luciferase signal, confirmation, cell-based, NIH3T3, luminescence, dose retest (AID 2382); type: functional;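 further: NIH3T3 fibroblasts with HSF1-driven luciferase reporter stressed by proteasome inhibitor MG132; luminescence from HSF1-driven luciferase expression after 8 hours of MG132 stress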
T3 sequence (P38532 whole entry): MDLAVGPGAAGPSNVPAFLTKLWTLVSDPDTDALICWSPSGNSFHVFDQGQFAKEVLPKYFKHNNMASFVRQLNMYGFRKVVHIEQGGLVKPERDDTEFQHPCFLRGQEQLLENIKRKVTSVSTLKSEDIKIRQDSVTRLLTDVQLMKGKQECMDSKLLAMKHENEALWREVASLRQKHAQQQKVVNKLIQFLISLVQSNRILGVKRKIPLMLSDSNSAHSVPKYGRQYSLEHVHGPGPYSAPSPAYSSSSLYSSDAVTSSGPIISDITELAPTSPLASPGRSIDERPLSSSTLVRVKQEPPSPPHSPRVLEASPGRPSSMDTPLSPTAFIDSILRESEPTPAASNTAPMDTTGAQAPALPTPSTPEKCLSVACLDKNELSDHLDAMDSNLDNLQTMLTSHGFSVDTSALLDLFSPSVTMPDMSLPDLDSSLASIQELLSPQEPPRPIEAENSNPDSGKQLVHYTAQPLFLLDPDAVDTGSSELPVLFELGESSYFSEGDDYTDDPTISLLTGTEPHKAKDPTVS

[5] = LGR2 antagonists, dose response, cell-based, HEK293, CRE-luciferase reporter, cherry pick, set 2 (AID 743343); type: functional;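 further: transfected cells were stimulated with diluted bursicon conditioned medium after compound addition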
[6] = MC4R antagonists, dose response, counter-screen for LGR2 antagonist project, cell-based, plate reader, cherry pick (AID 743444); type: functional;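 further: transfected HEK 293 cells stimulated with alpha-MSH peptide; potency of inhibitors of the alpha-MSH evoked signal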
[7] = target: T4, Rac GTPase-activating protein 1 (Homo sapiens, UniProt Q9H0H5); experiment: MgcRacGAP GTPase-activating activity inhibitors, confirmation, biochemical, ADP Hunter fluorescence, primary and confirmatory (AID 624330); type: functional
T4 sequence (Q9H0H5 whole entry): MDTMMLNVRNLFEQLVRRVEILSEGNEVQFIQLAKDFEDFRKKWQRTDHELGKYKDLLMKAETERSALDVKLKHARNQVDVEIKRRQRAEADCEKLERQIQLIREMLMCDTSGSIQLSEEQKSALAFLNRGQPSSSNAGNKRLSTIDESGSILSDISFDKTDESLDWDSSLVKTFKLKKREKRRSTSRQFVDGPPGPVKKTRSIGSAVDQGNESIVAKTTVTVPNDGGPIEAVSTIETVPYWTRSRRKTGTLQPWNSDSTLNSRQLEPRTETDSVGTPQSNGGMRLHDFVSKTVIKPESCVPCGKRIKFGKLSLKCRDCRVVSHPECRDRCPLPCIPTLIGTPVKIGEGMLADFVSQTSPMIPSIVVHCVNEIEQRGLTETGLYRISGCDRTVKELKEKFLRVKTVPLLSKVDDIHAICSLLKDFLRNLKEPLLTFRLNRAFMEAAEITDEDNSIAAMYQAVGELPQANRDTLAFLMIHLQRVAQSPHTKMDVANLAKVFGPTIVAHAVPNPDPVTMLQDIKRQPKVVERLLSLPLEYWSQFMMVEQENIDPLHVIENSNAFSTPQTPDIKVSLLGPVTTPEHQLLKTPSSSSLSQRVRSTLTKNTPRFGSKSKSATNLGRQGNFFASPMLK

[8] = target: Paired box protein Pax-8 (Homo sapiens, UniProt Q06710); experiment: inhibitors of PAX8-driven TPO luciferase reporter, dose response, RMG-I cells, cherry-pick (AID 687027); type: functional, cell-based;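 further: luciferase reporter driven by Pax8 target thyroperoxidase promoter measured by SteadyGlo luminescence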
Paired box protein Pax-8, sequence (Q06710 whole entry): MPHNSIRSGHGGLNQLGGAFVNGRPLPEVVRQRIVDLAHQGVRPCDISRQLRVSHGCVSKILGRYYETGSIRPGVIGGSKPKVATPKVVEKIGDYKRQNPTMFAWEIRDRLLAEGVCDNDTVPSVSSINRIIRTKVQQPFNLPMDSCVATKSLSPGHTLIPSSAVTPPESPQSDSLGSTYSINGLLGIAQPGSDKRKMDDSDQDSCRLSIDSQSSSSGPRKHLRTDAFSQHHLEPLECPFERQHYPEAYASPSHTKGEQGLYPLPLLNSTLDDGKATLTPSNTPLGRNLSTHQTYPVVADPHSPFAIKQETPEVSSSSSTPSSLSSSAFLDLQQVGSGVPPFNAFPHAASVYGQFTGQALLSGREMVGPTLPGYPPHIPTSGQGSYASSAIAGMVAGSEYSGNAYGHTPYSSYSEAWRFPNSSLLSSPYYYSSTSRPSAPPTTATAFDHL

[9] = NIH:OVCAR-3 ovarian cancer cell cytotoxicity, dose response, PAX8 inhibitor project, plate reader, dry powder samples (AID 743044); type: functional, cell-based
[10] = target: T5, Protein skinhead-1 (Caenorhabditis elegans, UniProt P34707); type: functional
T5 sequence (P34707 whole entry): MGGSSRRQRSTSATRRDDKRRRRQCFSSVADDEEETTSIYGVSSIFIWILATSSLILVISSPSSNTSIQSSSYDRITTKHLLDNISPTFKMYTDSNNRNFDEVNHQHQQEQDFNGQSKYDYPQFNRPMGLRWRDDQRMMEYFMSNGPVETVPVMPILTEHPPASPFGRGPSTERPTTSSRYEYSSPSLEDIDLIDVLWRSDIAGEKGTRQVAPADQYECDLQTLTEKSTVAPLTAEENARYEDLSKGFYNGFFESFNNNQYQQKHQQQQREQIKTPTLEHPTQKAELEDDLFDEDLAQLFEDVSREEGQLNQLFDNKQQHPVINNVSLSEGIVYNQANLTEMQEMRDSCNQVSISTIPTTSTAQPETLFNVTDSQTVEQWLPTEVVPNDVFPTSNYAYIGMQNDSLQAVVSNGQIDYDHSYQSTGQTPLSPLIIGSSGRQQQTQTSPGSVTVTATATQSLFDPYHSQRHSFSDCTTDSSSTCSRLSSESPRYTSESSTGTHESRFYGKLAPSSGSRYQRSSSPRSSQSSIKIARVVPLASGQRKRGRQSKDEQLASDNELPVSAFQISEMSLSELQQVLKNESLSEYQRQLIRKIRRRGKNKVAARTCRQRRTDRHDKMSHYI

CCCCCOc1ccc(NC(=O)CCCC(=O)O)cc1
IC50 [1]: 11.3 µM (active)

COc1cccc(=O)c2c(C)n(-c3ccc(C(=O)O)cc3)c(C)c12
AC50 [2]: > 20 µM (inactive)

COc1ccccc1N1CCN(C(=O)CNC(=O)c2cn(-c3ccccc3OC)c(=O)c3ccccc23)CC1
IC50 [3]: 9.56 µM (active)

Cc1cc(C(=O)COC(=O)C2CC2)c(C)n1-c1ccc(F)cc1
EC50 [4]: 1.96 µM (active)
AC50 [5]: 0.585 µM (active)
AC50 [6]: 0.334 µM (active)

CCS(=O)(=O)C1=NN2C(=N)/C(=C\c3ccc(O)c(OC)c3)C(=O)N=C2S1
IC50 [7]: 37.2 µM (active)
IC50 [1]: 35.2 µM (active)

CCCOP(=O)(c1ccc(N(C)C)cc1)C(O)c1ccncc1 (configuration not stated)
IC50 [3]: > 50 µM (not active)

Cc1ccc(C)c(NC(=O)C2CC=CCC2C(=O)O)c1 (configuration not stated)
IC50 [1]: 18.6 µM (active)

Cc1ccc(C(=O)CSc2nc(C)cc(C)c2C(N)=O)cc1
IC50 [3]: > 50 µM (not active)

O=C1C(=O)N(CCS(=O)(=O)c2ccccc2)c2ccc(F)cc21
AC50 [2]: 8.09 µM (active)

Cc1ccc(S(=O)(=O)N(C)C[C@@H]2Oc3cc(C#Cc4ccncc4)ccc3S(=O)(=O)N([C@H](C)CO)C[C@@H]2C)cc1
AC50 [8]: 6.03 µM (active)
AC50 [9]: 22.4 µM (active)

C/C(=N\NC(=S)NC1CCCCC1)c1cccc(Br)c1
IC50 [3]: > 50 µM (inconclusive)

CSc1nc(-c2ccco2)nn1C(=O)c1ccc(C)cc1
IC50 [10]: > 100 µM (inactive)
IC50 [3]: 0.16 µM (active)
